Data published in patent US7393834B2, “LHRH-antagonists in the treatment of fertility disorders” (AEterna Zentaris GmbH, priority 1996, dated 2008).
Entries after “also recorded” stand apart in the source; their conditions may differ. Where a SMILES comes first, the peptide text is derived from it. [ ]: non-standard residue; d: D form. dPhe(4-Cl) = N[C@H](Cc1ccc(Cl)cc1)C(=O)O; d2Nal = N[C@H](Cc1ccc2ccccc2c1)C(=O)O; dCit = NC(=O)NCCC[C@@H](N)C(=O)O; d3Pal = N[C@H](Cc1cccnc1)C(=O)O

Key:
[1] = test system: premature LH surges; settings: short term treatment, first clinical trials; cited from earlier work
[2] = test system: premature LH surge; test: Phase II clinical trial of Cetrorelix in controlled ovarian stimulation (COS/ART); format: in vivo, human; settings: for babies born by the end of May 1996: by end of May 1996; for minimal effective dose, Dose/Day / no effect dose, Dose/Day: phase II dose finding
Protocol: The results of a phase II clinical trial are shown in Table I. A total of […] patients were treated.
During multiple dosing, the mean days of Cetrorelix application is 6 days. 25 babies were born by the end of May 1996 (7 following multiple doses; 18 following single/dual doses).
The hormone levels of luteinizing hormone (LH) (μg/l) (∘), follicular stimulating hormone (FSH) (μg/l) (+), progesterone (μg/l) (●), and oestradiol (E2) (ng/l) (▾) were measured in patient number 21L07 at time intervals one month (Nov. 10, 1995) and four consecutive days before (Dec. 05, 1995-Dec. 09, 1995) a dual dose regimen of Cetrorelix (3 mg) was administered subcutaneously on Dec. 10, 1995 and Dec. 11, 1995. The patient's LH, FSH, progesterone and oestradiol levels were measured afterward between Dec. 11, 1995 and Dec. 14, 1995 wherein ovulation in the patient was induced with human chorionic gonadotrophin (HCG) on Dec. 14, 1995. The patients LH, FSH, progesterone, and oestradiol levels were also measured after HCG treatment through ovum pick up (OPU; Dec. 16, 1995), and embryo transfer (ET) on […]. Hormone levels were also measured on the 4th and (Dec. 22, 1995) and 16th day after ET(Jan. 3,1996).
238 patients were treated with Cetrorelix by subcutaneous injection of Cetrorelix Acetat-Lyophilisat.
134 patients were treated with multiple doses and 104 patients with single or dual doses. The multiple doses are 0.25 mg/day or higher. […]

[3] = test system: controlled ovarian stimulation (COS); test: Combination of Cetrorelix, clomifen citrate and gonadotrophins for hormonal stimulation for IVF/ICSI; format: in vivo, human; settings: for fertilization rates: ICSI
Protocol: Combination of the GnRH antagonist Cetrorelix, clomifen citrate(CC) and gonadotrophins for hormonal stimulation for IVF/ICSI. New controlled ovarian stimulation (COS) protocols become possible, which combine the advantages of clomifen citrate/gonadotrophin stimulation and pituitary suppression with Cetrorelix. COS was started on day 2 after spontaneous menstrual bleeding using 100 mg CC per day for 5 or 7 days. The antagonist Cetrorelix (0.25 mg s.c.) was given starting on stimulation day 6 combined with either urinary hMG or recombinant FSH (3 ampoules/d) in a prospective randomized way. After two days of gonadotrophin injection, the dose was individualized. Human chorionic gonadotropin was given for ovulation induction, if at least 3 follicles were ≧17 mm in diameter. In total, 30 patients were included in the study. 15 were randomized in each group. Intra cytoplasmatic sperm injection (ICSI) was applied in each case.

[4] = test system: follicular growth / pituitary; test: Animal experiments and clinical studies with Cetrorelix in normal, unstimulated cycles; format: in vivo
From the text: These low dosage levels present new possibilities for manipulating the time of ovulation during a normal, not exogenous gonadotropin-stimulated cycle, without affecting the viability of the growing follicle. In case of inadequate follicular growth related to treatment with LHRH-antagonists, low dose and short term administration of gonadotrophin or other trophic compounds will compensate for these effects. Subsequently, by stopping the LHRH-antagonist treatment, it is possible to let the normal ovulation occur or to induce ovulation by exogenous manipulation, if necessary. Ovulation induction was induced by the administration of standard HCG or by administration of LHRH and/or LHRH agonistic analogs. These described treatment alternatives are a departure from existing protocols, since they are possible only if preceded by treatment for LH-surge-control with an LHRH-antagonist. In animal and clinical studies with Cetrorelix it was shown that the responsiveness of the pituitary to LHRH or agonistic analogs is preserved under these conditions of treatment. Without this treatment, the pituitary cannot respond after agonistic pretreatment for LH-surge control due to receptor down-regulation. In addition, the possible use of ovulation inducing agents other than HCG results in a-reduced incidence of ovarian hyperstimulation syndrome.

[5] = all phase II patients, both regimens
[6] = single patient, dual dose regimen of 3 mg s.c.

CC(=O)N[C@H](Cc1ccc2ccccc2c1)C(=O)N[C@H](Cc1ccc(Cl)cc1)C(=O)N[C@H](Cc1cccnc1)C(=O)N[C@@H](CO)C(=O)N[C@@H](Cc1ccc(O)cc1)C(=O)N[C@H](CCCNC(N)=O)C(=O)N[C@@H](CC(C)C)C(=O)N[C@@H](CCCNC(=N)N)C(=O)N1CCC[C@H]1C(=O)N[C@H](C)C(N)=O [Cetrorelix] (Ac-[d2Nal][dPhe(4-Cl)][d3Pal]SY[dCit]LRP[dA]-NH2)
premature LH surges during stimulated cycles [1]: complete avoidance of premature LH surges | fertilization rates, follicle and oocytes quality ([2]; after both posologies (single and multiple dose)): good fertilization rates | pregnancy rates ([2]; after both treatments (single and multiple dose)): good | babies born by the end of May 1996 ([2]; all patients): 25 | pregnancies obtained (number) [2, 5]: 71 pregnancies | pregnancies obtained (rate) [2, 5]: 30% | babies born ([2]; following multiple doses): 15 | babies born by the end of May 1996 ([2]; following multiple doses): 7 | babies born ([2]; following single/dual doses): 29 | babies born by the end of May 1996 ([2]; following single/dual doses): 18 | pregnancies (rate) ([2]; multiple dose regimen, 134 patients): 28.4% | pregnancies (number) ([2]; multiple dose regimen, of 134 patients): 38 | minimal effective dose, Dose/Day ([2]; multiple dose, 3-7/14 days): 0.25 min. effect, dose mg | no effect dose, Dose/Day ([2]; multiple dose, 3-7/14 days): 0.10 no effect. dose mg | premature LH surge ([2]; patients undergoing COS/ART, multiple doses of 0.25 mg or higher or single dose of 3 mg or higher, s.c.): prevention of any premature LH surge; also recorded: No premature LH surge | minimal effective dose, Dose/Day ([2]; single dose (1 day)): 3 min. effective dose mg | no effect dose, Dose/Day ([2]; single dose (1 day)): 2 no effect. Dose mg | duration of effect to prevent a premature LH surge ([2]; single dose regimen, one injection of 3 mg): up to 6.5 days | FSH secretion (FIG. 1) [2, 6]: maintained at a natural level | individual estrogen development (FIG. 1) [2, 6]: not affected | premature LH surge (FIG. 1) [2, 6]: absolute prevention of any premature LH surge | pregnancies (rate) ([2]; single/dual dosage regimen, 104 patients): 31.7% | pregnancies (number) ([2]; single/dual dosage regimen, of 104 patients): 33 | ovarian hyperstimulation syndrome (OHSS) ([3]; 30 patients, both groups): no case of OHSS was observed | clinical pregnancy rate/transfer ([3]; hMG group): 4/14 | metaphase II oocytes ([3]; hMG group): 74% | oocytes per cycle retrieved ([3]; hMG group): 7.7±3.8 | transfer rate/cycle ([3]; hMG group): 87% | fertilization rates ([3]; hMG group): 42% | clinical pregnancy rate/transfer ([3]; recombinant FSH group): 1/11 | metaphase II oocytes ([3]; recombinant FSH group): 80% | oocytes per cycle retrieved ([3]; recombinant FSH group): 6.4±2.6 | transfer rate/cycle ([3]; recombinant FSH group): 80% | fertilization rates ([3]; recombinant FSH group): 53% | normal, unstimulated follicular growth ([4]; multiple or single injections, extremely low dosage levels): arrest of the normal, unstimulated follicular growth | responsiveness of the pituitary to LHRH or agonistic analogs ([4]; under LH-surge-control treatment with the antagonist): preserved
